In patent US20070021360A1, “Compositions, formulations and kit with anti-sense oligonucleotide and anti-inflammatory steroid and/or obiquinone for treatment of respiratory and lung disesase” (priority 2001, published 2007):

Legend:
adenosine A2 receptors = assay: Adenosine A2 receptor binding ([3H]CGS-21680) in airway smooth muscle membranes of treated rabbits; set-up: species or system rabbit; details: airway smooth muscle membranes after cross-over experiment; mean (n = 8) ± SEM
Excerpt: At the conclusion of the cross-over experiment of Example 3 above, airway smooth muscle from all rabbits was quantitatively analyzed for adenosine A1 receptor number. As a control for the specificity of the anti-sense oligonucleotide, adenosine A2 receptors, which should not have been affected, were also quantified. Airway smooth muscle tissue was dissected from each rabbit and a membrane fraction prepared according to the method of Kleinstein et al. (Kleinstein, J. and Glossrnann, H., Naunyn-Schrniedeberg's Arch Pharmacol. 305: 191-200 (1978)), the relevant portion of which is hereby incorporated in its entirety by reference, with slight modifications. Crude plasma membrane preparations were stored at −70 EC until the time of assay. Protein content was determined by the method of Bradford (M. Bradford, Anal. Biochem. 72, 240-254 (1976), the relevant portion of which is hereby incorporated in its entirety by reference). Frozen plasma membranes were thawed at room temperature and were incubated with 0.2 U/ml adenosine deaminase for 30 minutes at 37 EC to remove endogenous adenosine. The binding of [^3H] […] CGS-21680 ([…]) was measured as previously described by Ali et al. (Ali, S. et al., J. Pharmacol. Exp. Ther. 268, Ara. J. Physiol 266, L271-277 (1994), the relevant portion of which is hereby incorporated in its entirety by reference). […]

adenosine A1 receptor = assay: Adenosine-induced bronchoconstriction (PC50 Adenosine) in allergic rabbits; type: in vivo
Procedure: A fortuitous hoology between the rabbit and human DNA sequences within the adenosine A1 gene overlapping the initiation codon permitted the use of the phosphorothioate anti-sense oligonucleotides initially designed for use against the human adenosine A1 receptor in a rabbit model. Neonatal New Zealand white Pasteurella-free rabbits were immunized intraperitoneally within 24 hours of birth with 312 antigen units/ml house dust mite (D. farinae) extract (Berkeley Biologicals, Berkeley, Calif.), mixed with 10% kaolin. Immunizations were repeated weekly for the first month and then biweekly for the next 2 months. At 3-4 months of age, eight sensitized rabbits were anesthetized and relaxed with a mixture of ketamine hydrochloride (44 mg/kg) and acepromazine maleate (0.4 mg/kg) administered intramuscularly. The rabbits were then laid supine in a comfortable position on a small molded, padded animal board and intubated with a 4.0-mm intratracheal tube (Mallinkrodt, Inc., Glens Falls, N.Y.). A polyethylene catheter of external diameter 2.4 mm with an attached latex balloon was passed into the esophagus and maintained at the same distance (approximately 16 cm) from the mouth throughout the experiments. The intratracheal tube was attached to a heated Fleisch pneumotachograph (size 00; DOM Medical, Richmond, Va.), and flow was measured using a Validyne differential pressure transducer (Model DP-45161927; Validyne Engineering Corp., Northridge, Calif.) driven by a Gould carrier amplifier (Model 11-4113; Gould Electronic, Cleveland, Ohio). The esophageal balloon was attached to one side of the differential pressure transducer, and the outflow of the intratracheal tube was connected to the opposite side of the pressure transducer to allow recording of transpulmonary pressure. Flow was integrated to give a continuous tidal volume, and measurements of total lung resistance (RL) and dynamic compliance (Cdyn) were calculated at isovolumetric and flow zero points, respectively, using an automated respiratory analyzer (Model 6; Buxco, Sharon, Conn.). Animals were randomized and on Day 1 pretreatment values for PC50 were obtained for aerosolized adenosine. Anti-sense (HAdA1AS) or mismatched control (HAdA1MM) oligonucleotides were dissolved in sterile physiological saline at a concentration of 5000 μg (5 mg) per 1.0 ml. […] Aerosols of either saline, adenosine, or anti-sense or mismatch oligonucleotides were generated by an ultrasonic nebulizer (DeVilbiss, Somerset, Pa.), producing aerosol droplets 80% of which were smaller than 5:m in diameter. In the first arm of the experiment, four randomly selected allergic rabbits were administered anti-sense oligonucleotide and four the mismatched control oligonucleotide. On the morning of the third day, PC50 values (the concentration of aerosolized adenosine in mg/ml required to reduce the dynamic compliance of the bronchial airway 50% from the baseline value) were obtained and compared to PC50 values obtained for these animals prior to exposure to oligonucleotide. Following a 1 week interval, animals were crossed over, with those previously administered mismatch control oligonucleotide now administered anti-sense oligonucleotide, and those previously treated with anti-sense oligonucleotide now administered mismatch control oligonucleotide. Treatment methods and measurements were identical to those employed in the first arm of the experiment. […] For the purpose of calculation, PC50 values for these animals were set at 20 mg/ml. The values given therefore represent a minimum figure for anti-sense effectiveness. Actual effectiveness was higher.
Aerosols of either adenosine (0-20 mglnml), or anti-sense or one of two mismatch oligonucleotides (5 mg/ml) were separately prepared with an ultrasonic nebulizer (Model 646, DeVilbiss, Somerset, Pa.), which produced aerosol droplets, 80% of which were smaller than 5:m in diameter. […]

## 5′-GTAGCAGGCGGGGATGGGGGC-3′ [HAdA1MM1, reference compound]
Adenosine A2 receptors
  A2-Specific Binding: 302 ± 22
Adenosine A1 receptor; allergic rabbits, cross-over experiment, 20 mg total aerosolized oligo
  effect on PC50 Adenosine value: No effect
Adenosine A1 receptor; asthmatic rabbits, approx. 5 mg aerosolized oligo twice daily for two days, third day, non-responders set at 20 mg/ml, mean (n = 8) ± SEM
  PC50 Post Oligonucleotide: 5.16 ± 1.03 mg/mL
Adenosine A1 receptor; asthmatic rabbits, baseline before oligonucleotide, aerosolized adenosine reducing dynamic compliance 50%, mean (n = 8) ± SEM
  PC50 Pre Oligonucleotide: 3.56 ± 1.02 mg/mL
Adenosine A1 receptor; rabbits receiving inhaled oligonucleotide
  toxicity: No toxicity was observed
